PubChem BioAssay (NCI)
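Dose response: 5 concentrations. Exposure: 48 h. Format: 96-well plates. Endpoint: linear interpolation; highest concentration if not reached. GI50 is the concentration that inhibits growth by half. TGI marks complete inhibition of growth.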

Assays:
Test in all cases: DTP human tumour cell line panel, 48 h
COLO 205 colon = test system: COLO 205 colon
UACC-62 melanoma = test system: UACC-62 melanoma
ACHN renal = test system: ACHN renal
SN12C renal = test system: SN12C renal
MOLT-4 leukemia = test system: MOLT-4 leukemia
NCI-H226 lung = test system: NCI-H226 lung
SNB-75 CNS = test system: SNB-75 CNS
HCT-116 colon = test system: HCT-116 colon
SR leukemia = test system: SR leukemia

C=C1C(=O)OC2/C=C(\C=O)CC/C=C(\C)C(O)C[C@@H]12 (stereo partly drawn) showed a TGI (COLO 205 colon) of 15.3 µM, a TGI (UACC-62 melanoma) of 18.5 µM and a TGI (ACHN renal) of 19.9 µM. It also gave a TGI (SN12C renal) of 14.5 µM, a TGI (MOLT-4 leukemia) of 21.4 µM and a TGI (NCI-H226 lung) of 43.9 µM. The TGI (SNB-75 CNS) was 29 µM, the TGI (HCT-116 colon) was 3.46 µM and the TGI (SR leukemia) was > 27.6 µM.
For COc1ccc2c(c1)[n+]([O-])c(/C(C)=N/NC(=O)CC#N)c[n+]2[O-], the TGI (COLO 205 colon) was > 100 µM, the TGI (UACC-62 melanoma) was > 100 µM and the TGI (ACHN renal) was > 100 µM. For the same molecule, the TGI (SN12C renal) was > 100 µM, the TGI (MOLT-4 leukemia) was > 100 µM and the TGI (NCI-H226 lung) was > 100 µM. The TGI (SNB-75 CNS) was > 100 µM, the TGI (HCT-116 colon) was > 100 µM and the TGI (SR leukemia) was > 100 µM.
In the case of O=C1CCCN1CC#CCN1CCCC1, the GI50 (COLO 205 colon) was > 100 µM, the TGI (COLO 205 colon) was > 100 µM and the GI50 (UACC-62 melanoma) was > 100 µM. The TGI (UACC-62 melanoma) was > 100 µM, the GI50 (ACHN renal) was > 100 µM and the TGI (ACHN renal) was > 100 µM. The GI50 (SN12C renal) was > 100 µM, the TGI (SN12C renal) was > 100 µM and the GI50 (MOLT-4 leukemia) was > 100 µM. For the same molecule, the TGI (MOLT-4 leukemia) was > 100 µM, the GI50 (NCI-H226 lung) was > 100 µM and the TGI (NCI-H226 lung) was > 100 µM. For the same molecule, the GI50 (SNB-75 CNS) was > 100 µM, the TGI (SNB-75 CNS) was > 100 µM and the GI50 (HCT-116 colon) was > 100 µM. The TGI (HCT-116 colon) was > 100 µM, the GI50 (SR leukemia) was > 100 µM and the TGI (SR leukemia) was > 100 µM.
In the case of CC(C)Oc1cc(O)c2c(c1)OCC=C2CCC(=O)O, the TGI (COLO 205 colon) was 31.2 µM, the TGI (UACC-62 melanoma) was > 100 µM and the TGI (ACHN renal) was > 100 µM. The TGI (SN12C renal) was 69.3 µM, the TGI (MOLT-4 leukemia) was 91 µM and the TGI (NCI-H226 lung) was 69.8 µM. For the same molecule, the TGI (SNB-75 CNS) was > 100 µM, the TGI (HCT-116 colon) was 66.5 µM and the TGI (SR leukemia) was > 100 µM.
Work on COc1ccc(-c2cn[nH]c2-c2cc(OC)c3c(c2)OCCO3)cc1 yielded a GI50 (COLO 205 colon) of 0.0591 µM, a TGI (COLO 205 colon) of 0.585 µM and a GI50 (UACC-62 melanoma) of 0.0758 µM. For the same molecule, the TGI (UACC-62 melanoma) was 17.6 µM, the GI50 (ACHN renal) was 1.26 µM and the TGI (ACHN renal) was > 100 µM. For the same molecule, the GI50 (SN12C renal) was 1.28 µM, the TGI (SN12C renal) was 73.7 µM and the GI50 (MOLT-4 leukemia) was 0.706 µM. It also gave a TGI (MOLT-4 leukemia) of 34.3 µM, a GI50 (NCI-H226 lung) of 2.07 µM and a TGI (NCI-H226 lung) of 23.4 µM. It also gave a GI50 (SNB-75 CNS) of 0.122 µM, a TGI (SNB-75 CNS) of 0.738 µM and a GI50 (HCT-116 colon) of 0.0708 µM. It also gave a TGI (HCT-116 colon) of 13.9 µM, a GI50 (SR leukemia) of 0.0473 µM and a TGI (SR leukemia) of 14.2 µM.
COC(=O)C1=C(C(=O)OC)SC(=C(Cl)C(=S)Sc2ccccc2N)S1 was tested, and the GI50 (COLO 205 colon) was 34.8 µM, the TGI (COLO 205 colon) was > 100 µM and the GI50 (UACC-62 melanoma) was 19.9 µM. The TGI (UACC-62 melanoma) was 78.4 µM, the GI50 (ACHN renal) was 22.7 µM and the TGI (ACHN renal) was 49.7 µM. For the same molecule, the GI50 (SN12C renal) was 20.5 µM, the TGI (SN12C renal) was 59.4 µM and the GI50 (MOLT-4 leukemia) was > 100 µM. The TGI (MOLT-4 leukemia) was > 100 µM, the GI50 (NCI-H226 lung) was 30.7 µM and the TGI (NCI-H226 lung) was > 100 µM. For the same molecule, the GI50 (SNB-75 CNS) was 32.8 µM, the TGI (SNB-75 CNS) was > 100 µM and the GI50 (HCT-116 colon) was 13.2 µM. The TGI (HCT-116 colon) was 27.7 µM, the GI50 (SR leukemia) was 52.4 µM and the TGI (SR leukemia) was > 100 µM.
For O=C1Nc2cccc3cc(NCC(O)CCl)cc1c23 (stereo not drawn), the TGI (COLO 205 colon) was > 100 µM, the TGI (UACC-62 melanoma) was > 100 µM and the TGI (ACHN renal) was > 100 µM. The TGI (SN12C renal) was > 100 µM, the TGI (MOLT-4 leukemia) was 95.2 µM and the TGI (NCI-H226 lung) was > 100 µM. For the same molecule, the TGI (SNB-75 CNS) was > 100 µM, the TGI (HCT-116 colon) was > 100 µM and the TGI (SR leukemia) was 48 µM.
C/C(=N\NC(N)=S)c1nc2ccc(Cl)cc2[nH]1 showed a GI50 (COLO 205 colon) of 2.17 µM, a TGI (COLO 205 colon) of 10.1 µM and a GI50 (UACC-62 melanoma) of 2.2 µM. It also gave a TGI (UACC-62 melanoma) of 33.8 µM, a GI50 (ACHN renal) of 0.848 µM and a TGI (ACHN renal) of 7.83 µM. The GI50 (SN12C renal) was 4.72 µM, the TGI (SN12C renal) was > 50 µM and the GI50 (MOLT-4 leukemia) was 1.78 µM. For the same molecule, the TGI (MOLT-4 leukemia) was > 50 µM, the GI50 (NCI-H226 lung) was 2.48 µM and the TGI (NCI-H226 lung) was 10.1 µM. It also gave a GI50 (SNB-75 CNS) of 2.29 µM, a TGI (SNB-75 CNS) of 15.6 µM and a GI50 (HCT-116 colon) of 2.11 µM. For the same molecule, the TGI (HCT-116 colon) was 8.85 µM, the GI50 (SR leukemia) was 1.29 µM and the TGI (SR leukemia) was 15.9 µM.
In the case of COc1ccc(Cl)cc1Nc1nc(C(F)(F)F)ccc1C(=O)N/N=C/c1cc(OC)c(OC)c(OC)c1, the GI50 (COLO 205 colon) was 2.62 µM, the TGI (COLO 205 colon) was 8.33 µM and the GI50 (UACC-62 melanoma) was 2.09 µM. For the same molecule, the TGI (UACC-62 melanoma) was 3.74 µM, the GI50 (ACHN renal) was 3.28 µM and the TGI (ACHN renal) was 11.3 µM. The GI50 (SN12C renal) was 2.09 µM, the TGI (SN12C renal) was 18 µM and the GI50 (MOLT-4 leukemia) was 0.642 µM. For the same molecule, the TGI (MOLT-4 leukemia) was 2.82 µM, the GI50 (NCI-H226 lung) was 3.35 µM and the TGI (NCI-H226 lung) was 12.6 µM. For the same molecule, the GI50 (SNB-75 CNS) was 2.19 µM, the TGI (SNB-75 CNS) was 9.8 µM and the GI50 (HCT-116 colon) was 2.41 µM. For the same molecule, the TGI (HCT-116 colon) was 7.66 µM, the GI50 (SR leukemia) was 1.19 µM and the TGI (SR leukemia) was 4.19 µM.
Work on CCCCCCN(CCCCCC)CC(O)c1ccc2c3c(cccc13)CC2 (stereo not drawn) yielded a GI50 (COLO 205 colon) of 5.56 µM, a TGI (COLO 205 colon) of 19.8 µM and a GI50 (UACC-62 melanoma) of 4.4 µM. For the same molecule, the TGI (UACC-62 melanoma) was 17.5 µM, the GI50 (ACHN renal) was 10 µM and the TGI (ACHN renal) was 23.5 µM. For the same molecule, the GI50 (SN12C renal) was 7.04 µM, the TGI (SN12C renal) was 22 µM and the GI50 (MOLT-4 leukemia) was 4.36 µM. The TGI (MOLT-4 leukemia) was 22.7 µM, the GI50 (NCI-H226 lung) was 8.06 µM and the TGI (NCI-H226 lung) was 22.9 µM. It also gave a GI50 (SNB-75 CNS) of 13.6 µM, a TGI (SNB-75 CNS) of 27.1 µM and a GI50 (HCT-116 colon) of 1.68 µM. It also gave a TGI (HCT-116 colon) of 13.2 µM, a GI50 (SR leukemia) of 3.32 µM and a TGI (SR leukemia) of 13.8 µM.
Molecule COc1ccc(CN2c3ccccc3CCc3ccccc32)cc1F has a GI50 (COLO 205 colon) of 0.335 µM, a TGI (COLO 205 colon) of 1.39 µM and a GI50 (UACC-62 melanoma) of 0.804 µM. The TGI (UACC-62 melanoma) was > 100 µM, the GI50 (ACHN renal) was 0.604 µM and the TGI (ACHN renal) was > 100 µM. For the same molecule, the GI50 (SN12C renal) was 1.95 µM, the TGI (SN12C renal) was > 100 µM and the GI50 (MOLT-4 leukemia) was 0.554 µM. The TGI (MOLT-4 leukemia) was > 100 µM, the GI50 (NCI-H226 lung) was 2.43 µM and the TGI (NCI-H226 lung) was > 100 µM. The GI50 (SNB-75 CNS) was 0.277 µM, the TGI (SNB-75 CNS) was > 100 µM and the GI50 (HCT-116 colon) was 0.413 µM. The TGI (HCT-116 colon) was > 100 µM, the GI50 (SR leukemia) was 0.463 µM and the TGI (SR leukemia) was > 100 µM.
In the case of C[C@]12CC[C@@H]3c4ccc(O)cc4C(O)C[C@H]3[C@@H]1CCC2=O (stereo partly drawn), the GI50 (COLO 205 colon) was > 100 µM, the TGI (COLO 205 colon) was > 100 µM and the GI50 (UACC-62 melanoma) was > 100 µM. For the same molecule, the TGI (UACC-62 melanoma) was > 100 µM, the GI50 (ACHN renal) was > 100 µM and the TGI (ACHN renal) was > 100 µM. For the same molecule, the GI50 (SN12C renal) was > 100 µM, the TGI (SN12C renal) was > 100 µM and the GI50 (MOLT-4 leukemia) was > 100 µM. The TGI (MOLT-4 leukemia) was > 100 µM, the GI50 (NCI-H226 lung) was > 100 µM and the TGI (NCI-H226 lung) was > 100 µM. For the same molecule, the GI50 (SNB-75 CNS) was 26.9 µM, the TGI (SNB-75 CNS) was > 100 µM and the GI50 (HCT-116 colon) was > 100 µM. For the same molecule, the TGI (HCT-116 colon) was > 100 µM, the GI50 (SR leukemia) was > 100 µM and the TGI (SR leukemia) was > 100 µM.
For CC(=O)O[C@@H]1C2C(=O)OC(=O)C2C2CCC[C@]23O[C@H]13 (stereo partly drawn), the TGI (COLO 205 colon) was > 100 µM, the TGI (UACC-62 melanoma) was > 100 µM and the TGI (ACHN renal) was > 100 µM. The TGI (SN12C renal) was > 100 µM, the TGI (MOLT-4 leukemia) was > 100 µM and the TGI (NCI-H226 lung) was > 100 µM. For the same molecule, the TGI (SNB-75 CNS) was > 100 µM, the TGI (HCT-116 colon) was > 100 µM and the TGI (SR leukemia) was > 100 µM.
With CN1C(=O)C(Cl)(C(Cl)(Cl)S(=O)(=O)O)C(=O)c2ccccc21 (stereo not drawn) the TGI (COLO 205 colon) was > 100 µM, the TGI (UACC-62 melanoma) was > 100 µM and the TGI (ACHN renal) was > 100 µM. For the same molecule, the TGI (SN12C renal) was > 100 µM, the TGI (MOLT-4 leukemia) was > 100 µM and the TGI (NCI-H226 lung) was > 100 µM. For the same molecule, the TGI (SNB-75 CNS) was > 100 µM, the TGI (HCT-116 colon) was > 100 µM and the TGI (SR leukemia) was > 100 µM.
